According to ChEMBL document CHEMBL1133444, “N-cycloalkyl derivatives of adenosine and 1-deazaadenosine as agonists and partial agonists of the A(1) adenosine receptor” (J Med Chem, 2000):

How the values were obtained:
Adenosine receptor A2a = Adenosine receptor A2a (Rattus norvegicus, UniProt P30543); experiment: Binding affinity for adenosine A2A receptor was determined by displacement of [3H]CGS 21680 from rat striatal membranes.
Adenosine receptor A1 [1] = target: T1, Adenosine receptor A1 (Rattus norvegicus, UniProt P25099); experiment: Stimulation of [35S]GTP-gamma-S, binding to rat brain membranes by adenosine A1 receptor activation; assay type: functional, cell membranes, Membrane
T1 sequence (P25099 whole entry): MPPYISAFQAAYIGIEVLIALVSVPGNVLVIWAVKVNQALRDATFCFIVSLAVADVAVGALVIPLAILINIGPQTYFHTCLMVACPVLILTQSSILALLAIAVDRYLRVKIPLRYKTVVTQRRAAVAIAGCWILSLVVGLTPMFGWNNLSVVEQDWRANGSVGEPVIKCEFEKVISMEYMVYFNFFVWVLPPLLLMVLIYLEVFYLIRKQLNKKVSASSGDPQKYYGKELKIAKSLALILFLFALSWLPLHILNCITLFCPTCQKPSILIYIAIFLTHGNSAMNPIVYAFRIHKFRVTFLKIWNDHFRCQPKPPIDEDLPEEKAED

Adenosine receptor A1 [2] = target: T1, Adenosine receptor A1; experiment: Binding affinity for adenosine A1 receptor was assayed by displacement of [3H]DPCPX from rat cortical membranes.; assay type: cell membranes, Membrane
[3] = target: T2, Adenosine receptor A1 (Rattus norvegicus) (UniProt P25099); experiment: Percent relative intrinsic activity with reference to CCPA
T2 sequence (whole entry): T1 sequence (P25099 whole entry)

Adenosine receptor A1 [4] = target: T1, Adenosine receptor A1
Adenosine receptor A1 [5] = target: T1, Adenosine receptor A1; experiment: Binding affinity for adenosine A1 receptor, was assessed from the ability to displace [3H]-DPCPX (without GTP) from rat cortical membranes.
[6] = target: T2, Adenosine receptor A1 (Rattus norvegicus)
Description: Binding affinity for adenosine A1 receptor, was assessed from the ability to displace [3H]DPCPX (without GTP) from rat cortical membranes, activity expressed as KH (affinity for the high-affinity state)

[7] = target: T2, Adenosine receptor A1 (Rattus norvegicus); remark: listed apart in the source
Description: Binding affinity for adenosine A1 receptor, was assessed from the ability to displace [3H]DPCPX (without GTP) from rat cortical membranes, activity expressed as KL (affinity for the low-affinity state)

[8] = target: T2, Adenosine receptor A1 (Rattus norvegicus); remark: listed apart in the source
[9] = % of the receptors in the high affinity state
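For KH in this document: displacement of [3H]DPCPX binding from rat cortical membranes in the absence of GTP, KH giving affinity for the high-affinity receptor state.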
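For KL in this document: displacement of [3H]DPCPX from rat cortical membranes, assayed without GTP, with KL giving affinity for the low-affinity state of the receptor.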

Sequence of Adenosine receptor A2a (P30543 whole entry): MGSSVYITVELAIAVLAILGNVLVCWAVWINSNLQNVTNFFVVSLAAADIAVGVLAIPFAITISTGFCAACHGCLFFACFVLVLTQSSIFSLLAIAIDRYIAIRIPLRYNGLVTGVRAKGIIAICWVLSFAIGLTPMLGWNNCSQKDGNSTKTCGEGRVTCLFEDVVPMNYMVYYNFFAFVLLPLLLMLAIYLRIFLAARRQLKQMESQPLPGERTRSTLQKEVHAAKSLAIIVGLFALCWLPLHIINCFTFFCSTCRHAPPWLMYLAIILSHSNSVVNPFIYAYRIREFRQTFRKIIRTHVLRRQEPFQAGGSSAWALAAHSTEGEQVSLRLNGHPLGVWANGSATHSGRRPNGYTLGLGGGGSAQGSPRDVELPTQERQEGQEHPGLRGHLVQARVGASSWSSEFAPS

Ki (Adenosine receptor A2a)	EC50 (Adenosine receptor A1 [1])	Ki (Adenosine receptor A1 [2])	Ki (Adenosine receptor A1 [4])	Ki (Adenosine receptor A1 [5])	KH [6]	KL [7]	RIA [8]	Compound	also measured
3370 nM	–	–	–	–	–	–	–	OC[C@H]1O[C@@H](n2cnc3c(NC4CCCC4)ncnc32)[C@H](O)[C@@H]1O [N6-CYCLOPENTYLADENOSINE]	–
9200 nM	6360 nM	364 nM	–	–	–	–	–	OC[C@H]1OC(n2cnc3c(NC4CCCCCC4)ccnc32)[C@H](O)[C@@H]1O (some centres not stated)	–
2060 nM	57.3 nM	–	–	–	–	–	–	OC[C@H]1O[C@@H](n2cnc3c(NC4CC4)nc(Cl)nc32)[C@H](O)[C@@H]1O	–
10100 nM	475 nM	100 nM	–	–	–	–	–	OC[C@H]1O[C@@H](n2cnc3c(NC4CCCC4)ccnc32)[C@H](O)[C@@H]1O	–
3150 nM	86.4 nM	19.6 nM	–	–	–	–	–	OC[C@H]1O[C@@H](n2cnc3c(NC4CCCCCC4)ncnc32)[C@H](O)[C@@H]1O	–
460 nM	–	5.3 nM	–	–	–	–	–	OC[C@H]1O[C@@H](n2cnc3c(NC4CCC4)nc(Cl)nc32)[C@H](O)[C@@H]1O	–
590 nM	–	31.7 nM	–	–	–	–	–	OC[C@H]1O[C@@H](n2cnc3c(NC4CCCCC4)nc(Cl)nc32)[C@H](O)[C@@H]1O	–
20000 nM	–	595 nM	–	–	–	–	–	OC[C@H]1OC(n2cnc3c(NC4CCCCCCC4)cc(Cl)nc32)[C@H](O)[C@@H]1O (some centres not stated)	–
3110 nM	–	41 nM	–	–	–	–	–	OC[C@H]1O[C@@H](n2cnc3c(NC4CCC4)cc(Cl)nc32)[C@H](O)[C@@H]1O	–
1100 nM	431 nM	37.9 nM	–	–	–	–	–	OC[C@H]1OC(n2cnc3c(NC4CCCCCC4)nc(Cl)nc32)[C@H](O)[C@@H]1O (some centres not stated)	–
–	6180 nM	–	14300 nM	724 nM	115 nM	6.03 µM	–	OC[C@H]1O[C@@H](n2cnc3c(NC4CC4)nc(Cl)nc32)C[C@@H]1O	RIA [3]: 20.8%
–	–	–	2560 nM	497 nM	61.7 nM	1.59 µM	0	OC[C@H]1O[C@@H](n2cnc3c(NC4CCCCC4)nc(Cl)nc32)C[C@@H]1O	–
–	13700 nM	–	20400 nM	769 nM	124 nM	7.41 µM	24.9	OC[C@H]1O[C@@H](n2cnc3c(NC4CCCCCC4)ncnc32)C[C@@H]1O	–
–	–	–	1090 nM	369 nM	30.7 nM	0.752 µM	0	OC[C@H]1O[C@@H](n2cnc3c(NC4CCCCCC4)nc(Cl)nc32)C[C@@H]1O	–
510 nM	709 nM	26.7 nM	–	–	–	–	–	OC[C@H]1O[C@@H](n2cnc3c(NC4CC4)ncnc32)[C@H](O)[C@@H]1O	–
2840 nM	408 nM	49 nM	–	–	–	–	–	OC[C@H]1O[C@@H](n2cnc3c(NC4CCCC4)cc(Cl)nc32)[C@H](O)[C@@H]1O	–
4180 nM	–	53.5 nM	–	–	–	–	–	OC[C@H]1O[C@@H](n2cnc3c(NC4CCCCCCC4)ncnc32)[C@H](O)[C@@H]1O	–

Ki (Adenosine receptor A2a)	EC50 (Adenosine receptor A1 [1])	Ki (Adenosine receptor A1 [2])	Ki (Adenosine receptor A1 [4])	Ki (Adenosine receptor A1 [5])	KH [6]	KL [7]	RIA [8]	Compound	also measured
5120 nM	–	169 nM	–	–	–	–	–	OC[C@H]1O[C@@H](n2cnc3c(NC4CCCCC4)ccnc32)[C@H](O)[C@@H]1O	–
–	–	–	9310 nM	586 nM	84.9 nM	4.19 µM	0	OC[C@H]1O[C@@H](n2cnc3c(NC4CCCCCCC4)ncnc32)C[C@@H]1O	RHA [9]: 45.9%
4870 nM	6580 nM	247 nM	–	–	–	–	–	OC[C@H]1O[C@@H](n2cnc3c(NC4CCCCCC4)cc(Cl)nc32)[C@@H](O)C1O (some centres not stated)	–
–	–	–	–	–	–	–	0	OC[C@H]1O[C@@H](n2cnc3c(NC4CC4)ncnc32)C[C@@H]1O	–
9640 nM	704 nM	151 nM	–	–	–	–	–	OC[C@H]1O[C@@H](n2cnc3c(NC4CC4)cc(Cl)nc32)[C@H](O)[C@@H]1O	–
4230 nM	–	122 nM	–	–	–	–	–	OC[C@H]1OC(n2cnc3c(NC4CCCCCCC4)nc(Cl)nc32)[C@H](O)[C@@H]1O (some centres not stated)	–
–	1560 nM	–	1320 nM	154 nM	18.5 nM	0.8 µM	8.3	OC[C@H]1O[C@@H](n2cnc3c(NC4CCCC4)nc(Cl)nc32)C[C@@H]1O	–
5210 nM	–	268 nM	–	–	–	–	–	OC[C@H]1O[C@@H](n2cnc3c(NC4CCCCC4)cc(Cl)nc32)[C@H](O)[C@@H]1O	–
420 nM	–	3.92 nM	–	–	–	–	–	OC[C@H]1O[C@@H](n2cnc3c(NC4CCC4)ncnc32)[C@H](O)[C@@H]1O	–
–	–	–	1410 nM	659 nM	23.6 nM	1.02 µM	0	OC[C@H]1O[C@@H](n2cnc3c(NC4CCCCCCC4)nc(Cl)nc32)C[C@@H]1O	RHA [9]: 14.5%
13700 nM	–	539 nM	–	–	–	–	–	OC[C@H]1OC(n2cnc3c(NC4CCCCCCC4)ccnc32)[C@H](O)[C@@H]1O (some centres not stated)	–
16400 nM	1530 nM	326 nM	–	–	–	–	–	OC[C@H]1O[C@@H](n2cnc3c(NC4CC4)ccnc32)[C@H](O)[C@@H]1O	–
–	5110 nM	–	23600 nM	524 nM	121 nM	8.3 µM	33.8	OC[C@H]1O[C@@H](n2cnc3c(NC4CCC4)ncnc32)C[C@@H]1O	–
6550 nM	–	109 nM	–	–	–	–	–	OC[C@H]1O[C@@H](n2cnc3c(NC4CCC4)ccnc32)[C@H](O)[C@@H]1O	–
–	9640 nM	–	16700 nM	412 nM	92.5 nM	7.33 µM	40.1	OC[C@H]1O[C@@H](n2cnc3c(NC4CCCCC4)ncnc32)C[C@@H]1O	–
–	5760 nM	–	10200 nM	212 nM	39.3 nM	3.52 µM	42.1	OC[C@H]1O[C@@H](n2cnc3c(NC4CCCC4)ncnc32)C[C@@H]1O	–

Compound	Ki (Adenosine receptor A2a)	EC50 (Adenosine receptor A1 [1])	Ki (Adenosine receptor A1 [2])	Ki (Adenosine receptor A1 [4])	Ki (Adenosine receptor A1 [5])	KH [6]	KL [7]	RIA [8]	also measured
OC[C@H]1O[C@@H](n2cnc3c(NC4CCC4)nc(Cl)nc32)C[C@@H]1O	–	3710 nM	–	3600 nM	245 nM	33.3 nM	1.92 µM	19.5	–
